Patent US20060078570A1, “Use of asafetida extract as medicine for abstinence of drugs” (priority 2004, published 2006)
Structures can show the parent of a compound that is named as a salt.

What was measured:
morphine-dependent rats = assay: Naloxone-promoted abstinence experiment in morphine-dependent rats (symptom scores and body weight decrease); format: in vivo, Wistar rat
[1] = test system: subjects addicted to drugs; assay: Clinical trial: abstinence treatment of subjects addicted to drugs, asafetida injection intramuscularly; format: in vivo, human; conditions: 20 cases per group, thrice per day, phenoxyimidazoline hydrochloride 0.1 mg tablet
Excerpt: The typical performance of abstinence syndrome was as follows: yawning, lacrimation, perspiring, bad mood, anxiety, and dysphoria.
Apparently effective: the abstinence syndrome disappears completely and performance is normal.
Effective: the abstinence syndrome is obviously abated.
Ineffective: the abstinence syndrome has no obvious remission or no remission at all.
The subjects addicted to drugs were randomly grouped into asafetida injection treatment group, phenoxyimidazoline hydrochloride positive control group, placebo negative control group, wherein the phenoxyimidazoline hydrochloride is a relatively effective medicine for abstinence of drugs at present. The pharmaceuticals and usage thereof in each group were as follows:
Asafetida injection, 2 ml (equivalent to 1 g of original crude material)/bottle, thrice per day, a bottle per time, injected intramuscularly, for three consecutive days.
Phenoxyimidazoline hydrochloride, 0.1 mg/tablet, thrice per day, a tablet per time, for three consecutive days.
Placebo (physiological saline), 2 ml/bottle, thrice per day, a bottle per time, injected intramuscularly, for three consecutive days.

[2] = test system: subjects addicted to heroin for over 10 years; assay: Clinical trial (typical case): subjects addicted to heroin for over 10 years, asafetida injection intravenously; format: in vivo, human; conditions: 25 cases per group, heroin over 10 years, phenoxyimidazoline hydrochloride 0.1 mg tablet, thrice per day
[3] = clonidine 0.1 mg/kg perfused, X ± S, n=10
[4] = three days, asafetida 2 ml i.m.
[5] = asafetida 5 ml i.v., three days

Clc1cccc(Cl)c1N=C1NCCN1 [clonidine, phenoxyimidazoline hydrochloride]
Scores of performance and autonomic nervous system symptoms of rats after naloxone administration (morphine-dependent rats; clonidine 0.1 mg/kg perfused once a day, three times, 15 min after naloxone 4 mg/kg i.p., mean ± SD, n=10): 2.22 ± 2.29
Scores of performance and autonomic nervous system symptoms of rats after naloxone administration (morphine-dependent rats; clonidine 0.1 mg/kg perfused, 30 min after naloxone): 2.68 ± 1.81
Scores of performance and autonomic nervous system symptoms of rats after naloxone administration (morphine-dependent rats; clonidine 0.1 mg/kg perfused, 45 min after naloxone): 1.21 ± 1.80
Scores of performance and autonomic nervous system symptoms of rats after naloxone administration (morphine-dependent rats; clonidine 0.1 mg/kg perfused, 60 min after naloxone): 1.61 ± 1.54
Scores of performance and autonomic nervous system symptoms of rats after naloxone administration (morphine-dependent rats; clonidine 0.1 mg/kg perfused, 90 min after naloxone): 0.40 ± 0.68
Scores of performance and autonomic nervous system symptoms of rats after naloxone administration (morphine-dependent rats; clonidine 0.1 mg/kg perfused, 120 min after naloxone): 0 ± 0
body weight decreasing at 30 min after administrating naloxone (morphine-dependent rats; [3]): 4.077 ± 3.431 g
body weight decreasing at 60 min after administrating naloxone (morphine-dependent rats; [3]): 5.560 ± 4.960 g
Apparently effective, Number of Cases ([1]; three consecutive days, asafetida injection 2 ml (1 g crude material) intramuscularly): 13
Apparently effective, % [1, 4]: 65.00%
Effective, % [1, 4]: 35.00%
Effective, Number of Cases [1, 4]: 7
Ineffective, % [1, 4]: 0%
Ineffective, Number of Cases [1, 4]: 0
Total effective rate % [1, 4]: 100%
Apparently effective, % [2, 5]: 60.00%
Effective, % [2, 5]: 40.00%
Effective, Number of Cases [2, 5]: 10
Ineffective, % [2, 5]: 0%
Ineffective, Number of Cases [2, 5]: 0
Total effective rate % [2, 5]: 100%
Apparently effective, Number of Cases ([2]; three consecutive days, asafetida injection 5 ml (2.5 g crude material) intravenously): 15
